# Assay results from patent publication EP1658093B1, “USE OF A MIXTURE CONTAINING OXYTOCIN AND TESTOSTERON OR ESTRADIOL FOR TREATING DISTURBANCES OF PSYCHOSOCIAL EXPERIENCES AND BEHAVIOUR” (Beier, Klaus M., priority 2003, dated 2007).
# Key:
# [1] = Double-blind study: subjective state descriptions by questionnaire; assay type: in vivo; details: 4 Probanden
# Method: (§1) Untersucht wurden 4 Probanden, zwei heterosexuelle Paare mit jeweils mehr als 20jähriger Partnerschaftsdauer. In einer Doppelblindstudie wurden Oxytocin gegen Placebo, die Kombinationen Oxytocin/Estradiol an Männern und Oxytocin/Testosteron an Frauen gegen Placebo und gegen den "Austausch von Intimität" untersucht.
# (§2) Den Männern wurde Oxytocin nasal als Spraystoß (1 Spraystoß Syntocinon® = 4 I.E. Oxytocin) und Estradiol dermal als Membranpflaster(2 mg Estradiol mit der Freisetzungsrate von ca. […]; Estraderm TTS® 25) verabreicht.
# (§3) Den Frauen wurde Oxytocin nasal als Spraystoß (1 Spraystoß Syntocinon® = 4 I.E. Oxytocin) und Testosteron dermal als Membranpflaster (12,2 mg Testosteron mit einer Freisetzungsrate von ca. 0,1 mg/h; Androderm® 2,5 mg) verabreicht.
# (§4) Die Verabreichung von Oxytocin erfolgte nasal und doppelblind (Placebo und Verum) in zwei Dosierungen, 1 Sprühstoß = 4 I.E. Oxytocin und zwei Sprühstöße = 8 I.E. Oxytocin, jeweils fortlaufend im Abstand von einer Stunde. Oxytocin wurde sowohl vor als auch nach der Anlage des Membranpflasters verabreicht. Insgesamt wurden 4 nasale Interventionen vor und nach der zusätzlichen Sexualhormongabe durchgeführt, wobei das Verum 2 mal in unterschiedlichen Dosierungen gegeben wurde. Die ersten nasalen Interventionen erfolgten nach 2 Stunden Wirkzeit der Sexualhormone. […]
# [2] = Double-blind study: psychophysiological reaction patterns (SMARD-Watch), dynamic cross-correlation analysis; assay type: in vivo; details: mean over all 4 Probanden; Oxytocin nasal 4 or 8 I.E.; sex hormone as dermal patch (Estradiol in men, Testosteron in women); low coefficient = balanced sympathetic/parasympathetic regulation
# Method: as §1, §2, §3, §4
substance,measurement,setting,value
Oxytocin,subjektive Zustandsbeschreibungen (Selbstwahrnehmung),[1],stärker in Richtung Entspannung tendierte
same,Kreuzkorrelationskoeffizient,[2],"0,51"
